Legend:
[1] = Lipophilicity as RM values by reverse-phase thin layer chromatography (RPTLC); assay type: physicochemical; settings: methanol/water 75/25 v/v with ammonia drops
Text: Since lipophilicity is a significant physicochemical property determining the absorption, distribution, metabolism and excretion properties (ADME) of drugs, we attempted to determine experimentally the lipophilicity as RM values with reverse-phase thin layer chromatography (RPTLC). Lipophilicity was also theoretically calculated as Clog P values. According to the calculated Clog P values, the most lipophilic compounds were 2iii (6.37) and 2v (6.04). However, this observation was not supported by the RM values, since Compound 2iii presented very low lipophilicity (−0.061). Furthermore, the lipophilicity of Compound 2v could not be determined experimentally under the reported conditions. Attempts to correlate Clog P and RM values failed. From our results (Table 2), it can be concluded that RM values could not be used as a successful relative measure of the overall lipophilic/hydrophilic properties of these molecules. Tentatively, this can be attributed to the different nature of the hydrophilic and lipophilic phases in the two systems. Clog P refers to n-octanol/water, whereas RM in this case refers to methanol/water. Moreover, it is likely that pyrrole derivatives form hydrogen bonds within the hydrophilic phase.
Reverse-phase thin layer chromatography (RPTLC) was used for the determination of RM values. Silica gel plates were saturated with 5% v/v liquid paraffin in petroleum ether, and the mobile phase was methanol/water (75/25 v/v) with the addition of ammonia drops. Spots were detected under UV light. RM values were determined by the corresponding Rf values (from five measurements for each compound) using the equation [43]: RM = log[(1/Rf) − 1](1)

[2] = Superoxide radical scavenging activity (non-enzymatic, PMS/NADH, NBT method); settings: 100 μM
Text: Superoxide anion radical is an active form of oxygen, and it is the product of the one-electron reduction of […] oxygen. Herein, superoxide radicals were formed by mixing phenazine methosulfate (PMS) with NADH and air-oxygen. The production of radicals was estimated with the nitroblue-tetrazolium method (NBT). From the tested pyrroles, Compounds 2i and 2iii were equipotent (57%) scavengers. […] In contrast, the dipole moment appeared to be important. The values of the dipole, as calculated by the program Spartan v.5.1.3.
The superoxide anion radicals were produced non-enzymatically by mixing phenazine methosulfate (PMS) with NADH and air-oxygen. The production of superoxide radicals was estimated with the nitroblue-tetrazolium (NBT) method with 3 μΜ PMS, 78 μΜ NADH and 25 μΜ NBT in 19 μΜ phosphate buffer pH 7.4. The absorbance was measured at 560 nm at room temperature. The tested compounds were added in the mixture 2 min before the addition of NADH [52].

[3] = biological target: T1, soybean lipoxygenase (Glycine max, UniProt P08170); assay: Inhibition of soybean lipoxygenase (UV absorbance-based enzyme assay); assay type: biochemical; settings: for inhibition at 100 µM: read-out: LOX % inhibition
T1 construct: purchased Sigma Chemical, Co. (St. Louis, MO, USA)
T1 sequence (P08170 1-839): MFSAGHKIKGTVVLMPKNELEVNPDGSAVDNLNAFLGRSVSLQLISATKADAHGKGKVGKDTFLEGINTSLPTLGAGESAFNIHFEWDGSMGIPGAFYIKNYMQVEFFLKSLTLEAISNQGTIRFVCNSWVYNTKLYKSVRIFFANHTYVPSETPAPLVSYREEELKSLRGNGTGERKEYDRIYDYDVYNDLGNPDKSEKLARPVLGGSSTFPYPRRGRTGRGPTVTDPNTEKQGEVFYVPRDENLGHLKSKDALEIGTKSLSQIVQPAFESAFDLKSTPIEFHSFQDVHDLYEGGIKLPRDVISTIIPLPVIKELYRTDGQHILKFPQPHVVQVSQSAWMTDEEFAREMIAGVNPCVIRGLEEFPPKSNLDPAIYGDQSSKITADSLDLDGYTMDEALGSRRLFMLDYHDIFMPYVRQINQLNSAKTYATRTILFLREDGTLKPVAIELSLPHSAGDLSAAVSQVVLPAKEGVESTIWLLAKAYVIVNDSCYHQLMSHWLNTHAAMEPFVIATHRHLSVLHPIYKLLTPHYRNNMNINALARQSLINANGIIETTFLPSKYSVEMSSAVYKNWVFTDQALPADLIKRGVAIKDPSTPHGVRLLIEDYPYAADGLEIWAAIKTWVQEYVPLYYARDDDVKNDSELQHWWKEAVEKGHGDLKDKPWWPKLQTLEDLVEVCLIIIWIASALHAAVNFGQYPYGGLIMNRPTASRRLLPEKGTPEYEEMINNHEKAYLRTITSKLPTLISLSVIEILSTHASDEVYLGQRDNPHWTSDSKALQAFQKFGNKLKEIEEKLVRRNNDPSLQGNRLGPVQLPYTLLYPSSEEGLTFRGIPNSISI
Protocol: Lipoxygenase catalyzes the first two steps in the metabolism of arachidonic acid to leukotrienes. LTB4 generation is important in the pathogenesis of neutrophil-mediated inflammatory diseases with a marked relation to the severity of cardiovascular diseases, asthma and cancer. We evaluated the synthesized pyrroles for their ability to inhibit soybean LOX by the UV absorbance-based enzyme assay. […] The inhibition of COX-2, as a peroxidase, was determined by a colorimetric assay with the oxidation of N,N,N′,N′-tetramethyl-p-phenylenediamine (TMPD).
The tested compounds were dissolved in DMSO, and the final concentration was 100 μΜ. The compounds were incubated at room temperature with sodium linoleate as a substrate (0.1 mL) in a buffer solution of Tris:HCl (pH 9.00) and 0.2 mL of a solution of soybean lipoxygenase.

[4] = biological target: T2, interleukin-6 (IL-6) (Mus musculus, UniProt P08505); assay: Inhibition of interleukin-6 (immunometric double antibody sandwich EIA); assay type: biochemical; settings: compound 10 μM
T2 construct: purchased Cayman Item No. 583371
T2 sequence (P08505 25-211): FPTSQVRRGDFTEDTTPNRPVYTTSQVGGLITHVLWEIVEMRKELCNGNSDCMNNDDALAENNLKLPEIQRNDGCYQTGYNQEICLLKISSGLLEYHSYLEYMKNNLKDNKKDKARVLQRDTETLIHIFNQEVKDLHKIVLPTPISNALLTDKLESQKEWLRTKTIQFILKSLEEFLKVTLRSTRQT
Protocol: The assay used for the inhibition of IL-6 is based on an immunometric double antibody method (sandwich technique). […] Both compounds gave satisfactory biological responses, both in high and in low concentrations of IL-6 (Table 8).
The method was based on an immunometric double antibody sandwich technique. Each well of the microwell plate was coated with a specific for mouse IL-6 rat monoclonal antibody. Tested compounds at 10 μΜ and standards were incubated in the wells, and after rinsing, a second monoclonal antibody was added, which was conjugated with biotin and detected the captured IL-6. The recognition of double antibody sandwiches was done with HRP-conjugated streptavidin. The concentration of IL-6 was determined by measuring the enzymatic activity of HRP using the chromogenic substrate TMB (3,3′,5,5′-tetramethylbenzidine). The absorbance of the reaction product was measured at 450 nm, and the intensity of the color was directly proportional to the amount of bound HRP-streptavidin conjugate, which was proportional to the concentration of IL-6.

[5] = biological target: COX-1 (Homo sapiens, UniProt P23219); assay: Inhibition of COX-1 (preliminary results); assay type: biochemical
Text: More experiments are in progress to delineate accurately the inhibition profile.

COX-1, sequence (P23219 24-599): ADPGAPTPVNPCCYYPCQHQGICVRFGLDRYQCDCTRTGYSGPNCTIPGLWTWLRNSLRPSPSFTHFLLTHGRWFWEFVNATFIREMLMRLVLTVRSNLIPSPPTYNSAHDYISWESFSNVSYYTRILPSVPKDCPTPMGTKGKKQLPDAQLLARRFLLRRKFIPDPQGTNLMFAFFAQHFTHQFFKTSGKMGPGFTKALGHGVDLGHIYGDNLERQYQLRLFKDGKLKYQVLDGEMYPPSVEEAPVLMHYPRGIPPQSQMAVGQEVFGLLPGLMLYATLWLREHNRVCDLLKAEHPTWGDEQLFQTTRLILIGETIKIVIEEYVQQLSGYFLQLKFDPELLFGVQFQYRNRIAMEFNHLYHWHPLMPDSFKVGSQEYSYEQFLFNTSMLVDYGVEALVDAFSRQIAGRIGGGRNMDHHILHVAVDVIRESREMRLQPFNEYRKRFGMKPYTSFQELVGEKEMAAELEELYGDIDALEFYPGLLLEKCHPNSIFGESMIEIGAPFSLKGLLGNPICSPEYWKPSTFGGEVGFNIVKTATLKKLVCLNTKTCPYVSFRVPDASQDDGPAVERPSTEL

RM [1] | IC50 ([3]; pH 9.00, read-out: LOX IC50) [µM] | inhibition at 10 µM ([4]; IL-6 187.5 pg/mL) [%] | SMILES | O2^•− % superoxide radical scavenging activity [2] | inhibition at 10 µM ([4]; IL-6 375.0 pg/mL) [%] | inhibition at 10 µM ([4]; IL-6 750.0 pg/mL) [%] | inhibition at 10 µM ([4]; IL-6 1500 pg/mL) [%] | inhibition at 100 µM [5] [%] | inhibition at 100 µM [3] [%]
0.091 | 1000 | 99 | O=C(c1cccs1)c1c[nH]cc1-c1cccc(Oc2ccccc2)c1 [Compound 2i, [4-(3-Phenoxyphenyl)-1H-pyrrol-3-yl](thien-2-yl)methanone] | 57% | 99 | 98 | 99 | – | –
−0.061 | – | – | O=C(c1cccs1)c1c[nH]cc1-c1ccc(OCc2ccc(Br)cc2)cc1 [Compound 2iii, (4-{4-[(4-Bromobenzyl)oxy]phenyl}-1H-pyrrol-3-yl)(thien-2-yl)methanone] | 57% | – | – | – | 75 | –
−0.149 | – | – | O=C(c1ccccc1)c1c[nH]cc1-c1cccc2ccccc12 [Compound 2iv, [4-(Naphth-1-yl)-1H-pyrrol-3-yl](phenyl)methanone] | 76% | – | – | – | – | 10
– | – | – | O=C(c1ccc(Cl)cc1)c1c[nH]cc1-c1cccc2ccccc12 [Compound 2v, (4-Chlorophenyl)[4-(naphth-1-yl)-1H-pyrrol-3-yl]methanone] | inactive | 99 | 99 | 100 | 75 | 32
